Series [1] concerns Lung. Description: Biodistribution in Rattus norvegicus Wistar albino (rat) lung at 74 MBq/umol, iv administered 60 min post dose of non radiolabelled compound measured at 150 min. The note with it: in vivo, 2.5 h. The class given is ADME, organism-based.
Series [2] is described as follows: Biodistribution in Rattus norvegicus Wistar albino (rat) lung at 74 MBq/umol, iv administered 60 min post dose of non radiolabelled compound measured at 60 min. The class given is ADME, organism-based. The following applies: read-out: Drug uptake.
Series [3] is described as follows: Biodistribution in Rattus norvegicus Wistar albino (rat) lung at 74 MBq/umol, iv administered 60 min post dose of non radiolabelled compound measured at 30 min. The class given is ADME, organism-based. The note with it: read-out: Drug uptake.
Series [4] in a line: Ratio of drug uptake in Rattus norvegicus Wistar albino (rat) lung to blood at 74 MBq/umol, iv measured at 30 min. The class given is ADME, organism-based.
Series [5] relates to Kidney. Description: Biodistribution in Rattus norvegicus Wistar albino (rat) kidney at 74 MBq/umol, iv after 60 min. The class given is ADME, organism-based. The following applies: in vivo, 1 h.
Series [6] concerns Stomach. As to the kind of experiment: Biodistribution in Rattus norvegicus Wistar albino (rat) stomach at 74 MBq/umol, iv after 60 min. The series is classed as ADME, organism-based. The following applies: in vivo, 1 h.
Series [7] relates to Small intestine. As to the kind of experiment: Biodistribution in Rattus norvegicus Wistar albino (rat) small intestine at 74 MBq/umol, iv after 60 min. The class given is ADME, organism-based. The note with it: in vivo, 1 h.
Series [8] deals with Large intestine. As to the kind of experiment: Biodistribution in Rattus norvegicus Wistar albino (rat) large intestine at 74 MBq/umol, iv after 60 min. The series is classed as ADME, organism-based. The following applies: in vivo, 1 h.
Series [9] concerns Liver. As to the kind of experiment: Biodistribution in Rattus norvegicus Wistar albino (rat) liver at 74 MBq/umol, iv after 60 min. The series is classed as ADME, organism-based. The following applies: in vivo, 1 h.
Series [10] relates to Kidney. As to the kind of experiment: Biodistribution in Rattus norvegicus Wistar albino (rat) kidney at 74 MBq/umol, iv measured at 60 min. The note with it: in vivo, 1 h. The class given is ADME, organism-based.
For series [11], the system named is Stomach. Description: Biodistribution in Rattus norvegicus Wistar albino (rat) stomach at 74 MBq/umol, iv measured at 60 min. The class given is ADME, organism-based. The note with it: in vivo, 1 h.
Series [12] deals with Large intestine. Description: Biodistribution in Rattus norvegicus Wistar albino (rat) large intestine at 74 MBq/umol, iv measured at 60 min. The following applies: in vivo, 1 h. The class given is ADME, organism-based.
The subject of series [13] is Small intestine. Description: Biodistribution in Rattus norvegicus Wistar albino (rat) small intestine at 74 MBq/umol, iv measured at 60 min. The class given is ADME, organism-based. The note with it: in vivo, 1 h.
For series [14], the system named is Liver. Description: Biodistribution in Rattus norvegicus Wistar albino (rat) liver at 74 MBq/umol, iv measured at 60 min. The class given is ADME, organism-based. The note with it: in vivo, 1 h.
Series [15] has as its system Pancreas. As to the kind of experiment: Biodistribution in Rattus norvegicus Wistar albino (rat) pancreas at 74 MBq/umol, iv measured at 30 min. The series is classed as ADME, organism-based. The note with it: in vivo, 0.5 h.
For series [16], the system named is Lung. Description: Biodistribution in Rattus norvegicus Wistar albino (rat) lung at 74 MBq/umol, iv measured at 30 min. The series is classed as ADME, organism-based. The note with it: in vivo, 0.5 h.
The nature of series [17]: Octanol-water partition coefficient of the compound. The class given is physicochemical. The following applies: read-out: log KOW.
Series [18] is described as follows: Metabolic stability in Homo sapiens (human) serum at 24 hr. The note with it: read-out: Stability. The class given is ADME.
A short description of series [19]: Metabolic stability in Homo sapiens (human) serum at 4 hr. The class given is ADME. The following applies: read-out: Stability.
Series [20] can be described thus: Metabolic stability in Homo sapiens (human) serum at 3 hr. The series is classed as ADME. The following applies: read-out: Stability.
Series [21] can be described thus: Metabolic stability in Homo sapiens (human) serum at 2 hr. The class given is ADME. The following applies: read-out: Stability.
In series [22] the test system is Rattus norvegicus. Description: Ratio of drug uptake in Rattus norvegicus Wistar albino (rat) lung to muscle at 74 MBq/umol, iv measured at 30 min. The following applies: in vivo, 0.5 h.

One may read the Kp as the ratio of the level in a tissue or fluid to that in plasma or blood.

Take `O=C(O[C@@H]1Cc2c(cc(O)c([131I])c2O)O[C@@H]1c1cc(O)c(O)c(O)c1)c1cc(O)c(O)c(O)c1` [[131I]-EPIGALLOCATECHIN GALLATE]: the Drug uptake is 0.22 % ID/g in [1]; “Not Active” in series [5]; “Not Active” in [6]; “Not Active” in [7]; “Not Active” in series [8]; “Not Active” in [9]. Further, the Drug uptake worked out at 0.37 % ID/g in series [10]; 2.76 % ID/g in [11]; 1.04 % ID/g in [12]; 0.71 % ID/g in [13]; 0.23 % ID/g in [14]; 0.32 % ID/g in [15]. In [16], this compound gave a Drug uptake of 0.45 % ID/g. Further, the tissue uptake at 1 h in series [2] is 0.23 %ID/g. Further, the tissue uptake at 0.5 h in series [3] stood at 0.25 %ID/g. In addition, in series [4], the Kp at 0.5 h came out at 0.96. For the same compound, the logP in [17] was found to be 1.46. In [18], the remaining at 24 h is 83%. Further, the remaining at 4 h in series [19] was 84%. Further, the remaining at 3 h in series [20] came out at 86%. Moreover, in series [21], the remaining at 2 h was found to be 87%. Besides, in [22], the Ratio amounted to 2.69.
